Experimental data published in patent US7118895B2, “Process for producing aglycon by using diglycosidase and flavor-improved food containing the aglycon and converting agent to be used in the process” (Amano Enzyme Inc., priority 2000, dated 2006).

Tested on: Crude diglycosidase
Test: Examination of temperature in the conversion into isoflavone aglycons by diglycosidase using soybean materials
Type: biochemical, Penicillium multicolor IAM7153
Design: Decomposition efficiency of glycitin family in roasted soy flour / Decomposition efficiency of daidzin family in roasted soy flour / Decomposition efficiency of genistin family in soymilk / Decomposition efficiency of daidzin family in soymilk / Decomposition efficiency of glycitin family in defatted soybean / Decomposition efficiency of daidzin family in defatted soybean: concentration or dose not given beside the values
Details: for maximum isolation of aglycons: reaction at 55° C. for 6 hours
Method: Into 400 μL of 20 mM acetate buffer of pH 4.0 was suspended 50 mg of each of various soybean materials (roasted soy flour (manufactured by Fuji Shokuryo K.K.), soymilk (manufactured by Gitoh Shokuhin K.K.), defatted soybean (manufactured by Fuji Seiyu K.K.), concentrated soybean protein (manufactured by Fuji Seiyu K.K.)), whereby a substrate solution was prepared. Crude diglycosidase was diluted with 20 mM acetate buffer of pH 4.0 to be the glycosidase activity of 1.88 AU/mL. Fifty μL of the enzyme solution was mixed with the substrate solution and the whole was reacted at 80, 65, 55, 45, 37, or 30° C. at the total volume of 500 μL. To the reaction mixture was added 700 μL of ethanol after 0, 1, 3, and 6 hours of the reaction. After stirring and ultrasonication, the mixture was subjected to centrifugal separation at 15,000 rpm and 4° C. for 10 minutes. The supernatant was filtered through a filter and the existence of isoflavone glycosides and aglycon isoflavones contained in the reaction mixture was detected by HLPC.

[1] = 30 °C, heat treatment of enzyme: no, 0 h
[2] = 30 °C, heat treatment of enzyme: no, 1 h
[3] = 30 °C, heat treatment of enzyme: no, 3 h
[4] = 30 °C, heat treatment of enzyme: no, 6 h
[5] = 30 °C, heat treatment of enzyme: yes, 6 h
[6] = 45 °C, heat treatment of enzyme: no, 0 h
[7] = 45 °C, heat treatment of enzyme: no, 1 h
[8] = 45 °C, heat treatment of enzyme: no, 3 h
[9] = 45 °C, heat treatment of enzyme: no, 6 h
[10] = 45 °C, heat treatment of enzyme: yes, 6 h
[11] = 55 °C, heat treatment of enzyme: no, 0 h
[12] = 55 °C, heat treatment of enzyme: no, 1 h
[13] = 55 °C, heat treatment of enzyme: no, 3 h
[14] = 55 °C, heat treatment of enzyme: no, 6 h
[15] = 55 °C, heat treatment of enzyme: yes, 6 h
[16] = 65 °C, heat treatment of enzyme: no, 0 h
[17] = 65 °C, heat treatment of enzyme: no, 1 h
[18] = 65 °C, heat treatment of enzyme: no, 3 h
[19] = 65 °C, heat treatment of enzyme: no, 6 h
[20] = 65 °C, heat treatment of enzyme: yes, 6 h
[21] = 80 °C, heat treatment of enzyme: no, 0 h
[22] = 80 °C, heat treatment of enzyme: no, 1 h
[23] = 80 °C, heat treatment of enzyme: no, 3 h
[24] = 80 °C, heat treatment of enzyme: no, 6 h
[25] = 80 °C, heat treatment of enzyme: yes, 6 h

Structure (SMILES): COc1cc2c(=O)c(-c3ccc(O)cc3)coc2cc1O [glycitein]
- Decomposition efficiency of glycitin family in defatted soybean (30° C., heat treatment of enzyme no, reaction time 0 h): 38.7%
- Decomposition efficiency of glycitin family in defatted soybean (30° C., heat treatment of enzyme no, reaction time 1 h): 51.7%
- Decomposition efficiency of glycitin family in defatted soybean (30° C., heat treatment of enzyme no, reaction time 3 h): 55.4%
- Decomposition efficiency of glycitin family in defatted soybean (30° C., heat treatment of enzyme no, reaction time 6 h): 54.4%
- Decomposition efficiency of glycitin family in defatted soybean (30° C., heat treatment of enzyme yes, reaction time 6 h): 54.9%
- Decomposition efficiency of glycitin family in concentrated soybean protein [1]: 11.4%
- Decomposition efficiency of glycitin family in roasted soy flour [1]: 10.4%
- Decomposition efficiency of glycitin family in soymilk [1]: 8.1%
- Decomposition efficiency of glycitin family in concentrated soybean protein [2]: 17.5%
- Decomposition efficiency of glycitin family in roasted soy flour [2]: 31.5%
- Decomposition efficiency of glycitin family in soymilk [2]: 49.0%
- Decomposition efficiency of glycitin family in concentrated soybean protein [3]: 26.9%
- Decomposition efficiency of glycitin family in roasted soy flour [3]: 66.8%
- Decomposition efficiency of glycitin family in soymilk [3]: 60.4%
- Decomposition efficiency of glycitin family in concentrated soybean protein [4]: 40.3%
- Decomposition efficiency of glycitin family in roasted soy flour [4]: 80.9%
- Decomposition efficiency of glycitin family in soymilk [4]: 71.6%
- Decomposition efficiency of glycitin family in concentrated soybean protein [5]: 11.3%
- Decomposition efficiency of glycitin family in roasted soy flour [5]: 11.1%
- Decomposition efficiency of glycitin family in soymilk [5]: 7.9%
- Decomposition efficiency of glycitin family in defatted soybean (45° C., heat treatment of enzyme no, reaction time 0 h): 34.8%
- Decomposition efficiency of glycitin family in defatted soybean (45° C., heat treatment of enzyme no, reaction time 1 h): 55.7%
- Decomposition efficiency of glycitin family in defatted soybean (45° C., heat treatment of enzyme no, reaction time 3 h): 55.2%
- Decomposition efficiency of glycitin family in defatted soybean (45° C., heat treatment of enzyme no, reaction time 6 h): 59.0%
- Decomposition efficiency of glycitin family in defatted soybean (45° C., heat treatment of enzyme yes, reaction time 6 h): 55.8%
- Decomposition efficiency of glycitin family in concentrated soybean protein [6]: 11.4%
- Decomposition efficiency of glycitin family in roasted soy flour [6]: 10.4%
- Decomposition efficiency of glycitin family in soymilk [6]: 8.2%
- Decomposition efficiency of glycitin family in concentrated soybean protein [7]: 35.2%
- Decomposition efficiency of glycitin family in roasted soy flour [7]: 60.2%
- Decomposition efficiency of glycitin family in soymilk [7]: 53.8%
- Decomposition efficiency of glycitin family in concentrated soybean protein [8]: 49.6%
- Decomposition efficiency of glycitin family in roasted soy flour [8]: 67.4%
- Decomposition efficiency of glycitin family in soymilk [8]: 70.1%
- Decomposition efficiency of glycitin family in concentrated soybean protein [9]: 64.9%
- Decomposition efficiency of glycitin family in roasted soy flour [9]: 85.0%
- Decomposition efficiency of glycitin family in soymilk [9]: 84.7%
- Decomposition efficiency of glycitin family in concentrated soybean protein [10]: 11.3%
- Decomposition efficiency of glycitin family in roasted soy flour [10]: 13.4%
- Decomposition efficiency of glycitin family in soymilk [10]: 7.4%
- Decomposition efficiency of glycitin family in defatted soybean (55° C., heat treatment of enzyme no, reaction time 0 h): 38.7%
- Decomposition efficiency of glycitin family in defatted soybean (55° C., heat treatment of enzyme no, reaction time 1 h): 55.2%
- Decomposition efficiency of glycitin family in defatted soybean (55° C., heat treatment of enzyme no, reaction time 3 h): 57.4%
- Decomposition efficiency of glycitin family in defatted soybean (55° C., heat treatment of enzyme no, reaction time 6 h): 57.3%
- Decomposition efficiency of glycitin family in defatted soybean (55° C., heat treatment of enzyme yes, reaction time 6 h): 54.5%
- Decomposition efficiency of glycitin family in concentrated soybean protein [11]: 11.2%
- Decomposition efficiency of glycitin family in roasted soy flour [11]: 10.4%
- Decomposition efficiency of glycitin family in soymilk [11]: 7.6%
- Decomposition efficiency of glycitin family in concentrated soybean protein [12]: 51.4%
- Decomposition efficiency of glycitin family in roasted soy flour [12]: 69.9%
- Decomposition efficiency of glycitin family in soymilk [12]: 60.9%
- Decomposition efficiency of glycitin family in concentrated soybean protein [13]: 69.7%
- Decomposition efficiency of glycitin family in roasted soy flour [13]: 87.9%
- Decomposition efficiency of glycitin family in soymilk [13]: 72.3%
- Decomposition efficiency of glycitin family in concentrated soybean protein [14]: 72.7%
- Decomposition efficiency of glycitin family in roasted soy flour [14]: 94.0%
- Decomposition efficiency of glycitin family in soymilk [14]: 83.5%
- Decomposition efficiency of glycitin family in concentrated soybean protein [15]: 11.3%
- Decomposition efficiency of glycitin family in roasted soy flour [15]: 11.0%
- Decomposition efficiency of glycitin family in soymilk [15]: 6.7%
- Decomposition efficiency of glycitin family in defatted soybean (65° C., heat treatment of enzyme no, reaction time 0 h): 34.8%
- Decomposition efficiency of glycitin family in defatted soybean (65° C., heat treatment of enzyme no, reaction time 1 h): 54.7%
- Decomposition efficiency of glycitin family in defatted soybean (65° C., heat treatment of enzyme no, reaction time 3 h): 57.9%
- Decomposition efficiency of glycitin family in defatted soybean (65° C., heat treatment of enzyme no, reaction time 6 h): 60.0%
- Decomposition efficiency of glycitin family in defatted soybean (65° C., heat treatment of enzyme yes, reaction time 6 h): 51.2%
- Decomposition efficiency of glycitin family in concentrated soybean protein [16]: 11.4%
- Decomposition efficiency of glycitin family in roasted soy flour [16]: 10.4%
- Decomposition efficiency of glycitin family in soymilk [16]: 8.1%
- Decomposition efficiency of glycitin family in concentrated soybean protein [17]: 58.6%
- Decomposition efficiency of glycitin family in roasted soy flour [17]: 65.5%
- Decomposition efficiency of glycitin family in soymilk [17]: 57.6%
- Decomposition efficiency of glycitin family in concentrated soybean protein [18]: 64.0%
- Decomposition efficiency of glycitin family in roasted soy flour [18]: 69.0%
- Decomposition efficiency of glycitin family in soymilk [18]: 65.7%
- Decomposition efficiency of glycitin family in concentrated soybean protein [19]: 63.8%
- Decomposition efficiency of glycitin family in roasted soy flour [19]: 71.0%
- Decomposition efficiency of glycitin family in soymilk [19]: 74.5%
- Decomposition efficiency of glycitin family in concentrated soybean protein [20]: 11.4%
- Decomposition efficiency of glycitin family in roasted soy flour [20]: 10.4%
- Decomposition efficiency of glycitin family in soymilk [20]: 7.2%
- Decomposition efficiency of glycitin family in defatted soybean (80° C., heat treatment of enzyme no, reaction time 0 h): 34.8%
- Decomposition efficiency of glycitin family in defatted soybean (80° C., heat treatment of enzyme no, reaction time 1 h): 53.9%
- Decomposition efficiency of glycitin family in defatted soybean (80° C., heat treatment of enzyme no, reaction time 3 h): 55.0%
- Decomposition efficiency of glycitin family in defatted soybean (80° C., heat treatment of enzyme no, reaction time 6 h): 59.7%
- Decomposition efficiency of glycitin family in defatted soybean (80° C., heat treatment of enzyme yes, reaction time 6 h): 51.9%
- Decomposition efficiency of glycitin family in concentrated soybean protein [21]: 11.4%
- Decomposition efficiency of glycitin family in roasted soy flour [21]: 10.4%
- Decomposition efficiency of glycitin family in soymilk [21]: 8.2%
- Decomposition efficiency of glycitin family in concentrated soybean protein [22]: 23.8%
- Decomposition efficiency of glycitin family in roasted soy flour [22]: 40.8%
- Decomposition efficiency of glycitin family in soymilk [22]: 45.7%
- Decomposition efficiency of glycitin family in concentrated soybean protein [23]: 23.4%
- Decomposition efficiency of glycitin family in roasted soy flour [23]: 41.1%
- Decomposition efficiency of glycitin family in soymilk [23]: 44.9%
- Decomposition efficiency of glycitin family in concentrated soybean protein [24]: 22.8%
- Decomposition efficiency of glycitin family in roasted soy flour [24]: 30.7%
- Decomposition efficiency of glycitin family in soymilk [24]: 34.4%
- Decomposition efficiency of glycitin family in concentrated soybean protein [25]: 11.4%
- Decomposition efficiency of glycitin family in roasted soy flour [25]: 9.9%
- Decomposition efficiency of glycitin family in soymilk [25]: 9.3%
- maximum isolation of aglycons (concentrated soybean protein): about 73%
- maximum isolation of aglycons (defatted soybean): about 57%
- maximum isolation of aglycons (soy flour): about 94%
- maximum isolation of aglycons (soymilk): about 84%
